Experimental data as given in patent US11384078B2, “5,6-fused-bicyclic compounds and compositions for the treatment of parasitic diseases” (NOVARTIS AG, priority 2017, dated 2022).
Where two headings read alike, the source gives them in different places.

Key:
Type in all cases: cell-based
[1] = test system: Leishmania donovani axenic amastigote; test: In vitro assay for growth inhibition of Leishmania donovani axenic amastigote (Cell TiterGlo luminescence); conditions: Leishmania donovani, read-out: L. donovani amastigotes EC50
Experimental: Abbreviations as used herein below have the corresponding meaning: • CPRG Chlorophenol Red-P-D-galactopyranoside • ATP adenosine triphosphate • BSA bovine serum albumin • DMSO dimethyl sulfoxide • FBS fetal bovine serum • PBS phosphate buffered saline • RPMI 1640 Rosweli Park Memorial Institute (RPMI) 1640 medium In Vitro Assay for Growth Inhibition of Leishmania donovani Axenic Amastiqote
Leishmania donovani axenic amastigote parasites are grown at 37° C., 5% CO2 in media made of RPMI 1640, 4 mM L-glutamine, 20% heat inactivated FBS, 100 units/ml of penicillin and 100 μg/ml of streptomycin, 23 μM folic acid, 100 μM adenosine, 22 mM D-glucose, 25 mM MES. The pH of media is adjusted to 5.5 at 37° C. using HCl. 20 μL of media is first dispensed into 384 well plates and 100 nL of the compounds of invention in DMSO are added to the plate wells. At the same time control compounds and DMSO are added to plates to serve as the positive and negative controls, respectively. 40 μL of parasite culture (9600 parasites) are then added to the plate wells. The plates are then placed into incubators. After two days incubation, 20 μL of Cell TiterGlo® (Promega) is added to the plate wells. The luminescence signal of each well is measured using the Envision reader (Perkin Elmer).

[2] = test system: Trypanosoma cruzi amastigotes cultured in 3T3 fibroblast cells; test: Assay for growth inhibition of kinetoplastid parasite Trypanosoma cruzi (beta-galactosidase Tulahuen strain, CPRG readout); conditions: Trypanosoma cruzi, Fibroblast, read-out: Buckner infectious T. cruzi EC50
From the text: Assay for Growth Inhibition of Kinetoplastid Parasite Trypanosoma cruzi
Compounds of the invention can be assayed for inhibitor activity against Trypanosoma cruzi amastigotes cultured in 3T3 fibroblast cells. The assay is done using the mammalian stage (amastigotes) of T. cruzi that replicates in the intracellular space of host cells. The host cells are initially infected with the culture-derived trypomastigotes that rapidly invade and then divide as amastigotes. The protocol uses the Tulahuen strain of T. cruzi that has been engineered to express the E. coli beta-galactosidase gene (Lac-Z) (Antimicr. Agents Chemoth. 40:2592, 1996). This allows for a colorimetric readout by using the substrate CPRG and an absorbance plate reader.
3T3 fibroblast cells are re-suspended in RPMI-1640 medium without phenol red medium supplemented with 10% FBS (heat inactivated), 100 μg/ml penicillin, and 100 μg/ml streptomycin. Forty μL of suspension (1,000 cells) is dispensed into 384-well plates and incubated overnight at 37° C. temperature and in atmosphere containing 5% CO2. The following day, 100 nL of compounds of the invention in DMSO are added to plate wells containing 3T3 cells. At the same time control compounds (benznidazole and nifurtimox) and DMSO are added to plates to serve as the positive and negative controls, respectively. After that, 10 μL of media containing 10,000 T. cruzi trypomastigotes are added to each plate well and plates are placed back into incubators. After 6 day incubation, 10 μL of reagent solution (0.6 mM CPRG, 0.6% NP-40 in PBS) is added to plates and incubated at room temperature for 2 hours. Absorbance is then measured on SpectraMax GEMINI fluorimeter to determine relative number of T. cruzi cells present in each plate well.

[3] = test system: Trypanosoma brucei brucei (Lister 427) strain; test: Assay for growth inhibition against Trypanosoma brucei brucei (Cell TiterGlo ATP luminescence); conditions: read-out: T. Brucei (HAT) EC50
Experimental: Assay for Growth Inhibition Against Trypanosoma brucei brucei
The proliferation is quantified by the addition of Cell TiterGlo® (Promega®) a luminescent cell viability assay that measures the number of viable cells in culture based on the quantification of cellular ATP amount, which is an indicator of metabolically active cells.
Trypanosoma brucei brucei (Lister 427) strain was grown in Hirumi 9 (HMI-9) media supplemented with 10% v/v fetal bovine serum (FBS) and 10% v/v serum plus. For measurement of cell proliferation inhibition, test compounds were three fold serially diluted in duplicates to 384-well white plates, resulting in 10 dilutions for each compound. A volume of 40 μL of T. b. brucei culture (10,000 parasites/mL) was added to each well, and the assay plates were incubated at 37° C. for 2 days in a CO2 incubator. Growth inhibition was monitored by measuring ATP levels, which, is used as a surrogate marker for growth. Relative luminescence units were measured using TECAN® M1000 after 30 min of adding 40 μl of Cell TiterGlo®. IC50 values were determined by analyzing the data using HELIOS software. IC50 is defined as the lowest concentration of the compound that inhibited 50% growth of the T. b. brucei wild type strain compared to untreated controls.

[4] = L. donovani axenic amastigotes in vitro
[5] = Trypanosoma brucei, T. brucei brucei (Lister 427)

Row | SMILES | EC50 [1, 4] [nM] | EC50 [3, 5] [nM] | EC50 ([3]; T. brucei brucei (Lister 427)) [nM] | also measured
1 | Cc1nc(C)c(C(=O)Nc2ccc(F)c(-n3cc4cc(-c5ncccc5C)cnc4n3)c2)o1 [Compound 1, N-(4-fluoro-3-(5-(3-methylpyridin-2-yl)-2H-pyrazolo[3,4-b]pyridin-2-yl)phenyl)-2,4-dimethyloxazole-5-carboxamide] | – | – | – | EC50 [1]: 7.1 nM; EC50 [2]: 5.2 nM; EC50 ([3]; Trypanosoma brucei): < 23 nM
2 | Cc1cccnc1-c1cnc2nn(-c3cc(NC(=O)N4CC[C@@H](F)C4)ccc3F)cc2c1 [Compound 4, (R)-3-fluoro-N-(4-fluoro-3-(5-(3-methylpyridin-2-yl)-2H-pyrazolo[3,4-b]pyridin-2-yl)phenyl)pyrrolidine-1-carboxamide] | 1.3 | < 23 | – | EC50 ([2]; T. cruzi amastigotes in 3T3 fibroblast cells): 1 nM
3 | O=C(Nc1ccc(F)c(-n2cc3cc(-c4ccccn4)cnc3n2)c1)C1CC1 [Compound 12, N-{4-fluoro-3-[5-(pyridin-2-yl)-2H-pyrazolo[3,4-b]pyridin-2-yl]phenyl}cyclopropanecarboxamide] | 41 | < 23 | – | –
4 | O=C(CC1CC1)Nc1ccc(F)c(-n2cc3cc(-c4ccccn4)cnc3n2)c1 [Compound 13, 2-cyclopropyl-N-{4-fluoro-3-[5-(pyridin-2-yl)-2H-pyrazolo[3,4-b]pyridin-2-yl]phenyl}acetamide] | 71 | < 23 | – | –
5 | O=C(Nc1ccc(F)c(-n2cc3cc(N4CC(F)C4)cnc3n2)c1)N1CCC1 [Compound 40, N-{4-fluoro-3-[5-(3-fluoroazetidin-1-yl)-2H-pyrazolo[3,4-b]pyridin-2-yl]phenyl}azetidine-1-carboxamide] | – | – | < 23 | –
6 | O=C(Nc1ccc(F)c(-n2cc3cc(N4CC(F)C4)cnc3n2)c1)N1CC(F)C1 [Compound 58, 3-fluoro-N-{4-fluoro-3-[5-(3-fluoroazetidin-1-yl)-2H-pyrazolo[3,4-b]pyridin-2-yl]phenyl}azetidine-1-carboxamide] | – | – | < 23 | –
7 | O=C(Nc1ccc(F)c(-n2cc3cc(N4CC(F)(F)C4)cnc3n2)c1)N1CCC1 [Compound 92, N-{3-[5-(3,3-difluoroazetidin-1-yl)-2H-pyrazolo[3,4-b]pyridin-2-yl]-4-fluorophenyl}azetidine-1-carboxamide] | – | – | < 23 | –
8 | CC(C)c1cnc2nn(-c3cc(NC(=O)C4CC(F)C4)ccc3F)cc2c1 (centres unmarked) [Compound 121, 3-fluoro-N-{4-fluoro-3-[5-(propan-2-yl)-2H-pyrazolo[3,4-b]pyridin-2-yl]phenyl}cyclobutane-1-carboxamide] | 210 | 120 | – | –
9 | O=C(Nc1ccc(F)c(-n2cc3cc(-c4ncccc4F)cnc3n2)c1)N1CC(F)C1 [Compound 187, 3-fluoro-N-(4-fluoro-3-(5-(3-fluoropyridin-2-yl)-2H-pyrazolo[3,4-b]pyridin-2-yl)phenyl)azetidine-1-carboxamide] | 1.3 | < 23 | – | –
10 | C[C@@H]1CN(c2cnc3nn(-c4cc(NC(=O)N5CC(F)C5)ccc4F)cc3c2)C[C@H](C)O1 [Compound 190, N-(3-{5-[(2R,6S)-2,6-dimethylmorpholin-4-yl]-2H-pyrazolo[3,4-b]pyridin-2-yl]-4-fluorophenyl)-3-fluoroazetidine-1-carboxamide] | – | – | > 50000 | –
11 | O=C(Nc1ccc(F)c(-n2cc3cc(N4CCC45COC5)cnc3n2)c1)N1CC(F)C1 [Compound 191, 3-fluoro-N-[4-fluoro-3-(5-{6-oxa-1-azaspiro[3.3]heptan-1-yl}-2H-pyrazolo[3,4-b]pyridin-2-yl)phenyl}azetidine-1-carboxamide] | – | – | < 23 | –
12 | COCC1CN(c2cnc3nn(-c4cc(NC(=O)N5CC(F)C5)ccc4F)cc3c2)C1 [Compound 192] | – | – | < 23 | –
13 | O=C(Nc1ccc(F)c(-n2cc3cc(N4CC5(CC5)C4)cnc3n2)c1)N1CC(F)C1 [Compound 193, N-[3-(5-{5-azaspiro[2.3]hexan-5-yl}-2H-pyrazolo[3,4-b]pyridin-2-yl)-4-fluorophenyl}-3-fluoroazetidine-1-carboxamide] | – | – | < 23 | –
14 | O=C(Nc1ccc(F)c(-n2cc3cc(N4C[C@@H](F)[C@H](F)C4)cnc3n2)c1)N1CC(F)C1 [Compound 194, N-(3-{5-[(3R,4R)-3,4-difluoropyrrolidin-1-yl]-2H-pyrazolo[3,4-b]pyridin-2-yl]-4-fluorophenyl)-3-fluoroazetidine-1-carboxamide] | – | – | < 23 | –

More lines, main results first:

Row | EC50 [1, 4] [nM] | EC50 [3, 5] [nM] | SMILES | EC50 ([3]; T. brucei brucei (Lister 427)) [nM] | also measured
15 | 7.3 | < 23 | O=C(Nc1ccc(F)c(-n2cc3cc(N4CC5CCC(C4)O5)cnc3n2)c1)N1CC(F)C1 [Compound 184, 3-fluoro-N-[4-fluoro-3-(5-{8-oxa-3-azabicyclo[3.2.1]octan-3-yl}-2H-pyrazolo[3,4-b]pyridin-2-yl)phenyl}azetidine-1-carboxamide] | – | –
16 | 200 | < 23 | COCCNc1cnc2nn(-c3cc(NC(=O)N4CC(F)C4)ccc3F)cc2c1 [Compound 185, 3-fluoro-N-(4-fluoro-3-{5-[(2-methoxyethyl)amino]-2H-pyrazolo[3,4-b]pyridin-2-yl]phenyl)azetidine-1-carboxamide] | – | –
17 | 460 | 240 | O=C(Nc1ccc(F)c(-n2cc3cc(N4CCn5cnnc5C4)cnc3n2)c1)N1CC(F)C1 [Compound 186, 3-fluoro-N-[4-fluoro-3-(5-{5H,6H,7H,8H-[1,2,4]triazolo[4,3-a]pyrazin-7-yl}-2H-pyrazolo[3,4-b]pyridin-2-yl)phenyl}azetidine-1-carboxamide] | – | –
18 | 2.4 | < 23 | O=C(Nc1ccc(F)c(-n2cc3cc(-c4ncccc4Cl)cnc3n2)c1)N1CC(F)C1 [Compound 188, N-{3-[5-(3-chloropyridin-2-yl)-2H-pyrazolo[3,4-b]pyridin-2-yl]-4-fluorophenyl}-3-fluoroazetidine-1-carboxamide] | – | –
19 | 3 | < 23 | O=C(Nc1ccc(F)c(-n2cc3cc(-c4cccnc4)cnc3n2)c1)N1CC(F)C1 [Compound 189, 3-fluoro-N-{4-fluoro-3-[5-(pyridin-3-yl)-2H-pyrazolo[3,4-b]pyridin-2-yl]phenyl}azetidine-1-carboxamide] | – | –
20 | 7 | 13 | [2H]C([2H])([2H])c1nc(C)c(C(=O)Nc2ccc(F)c(-n3cc4cc(-c5ncccc5C)cnc4n3)c2)o1 [Compound 278, N-{4-fluoro-3-[5-(3-methylpyridin-2-yl)-2H-pyrazolo[3,4-b]pyridin-2-yl]phenyl}-2-(^2H3)methyl-4-methyl-1,3-oxazole-5-carboxamide] | – | –
21 | 176 | 260 | O=C(Nc1ccc(F)c(-n2cc3cc(C4CCCCO4)cnc3n2)c1)N1CCC1 (centres unmarked) [Compound 288, N-(4-fluoro-3-(5-(tetrahydro-2H-pyran-2-yl)-2H-pyrazolo[3,4-b]pyridin-2-yl)phenyl)azetidine-1-carboxamide] | – | –
22 | 199 | 208 | O=C(Nc1ccc(F)c(-n2cc3cc(C4COCCO4)cnc3n2)c1)N1CCC1 (centres unmarked) [Compound 289, N-{3-[5-(1,4-dioxan-2-yl)-2H-pyrazolo[3,4-b]pyridin-2-yl]-4-fluorophenyl}azetidine-1-carboxamide] | – | –
